The values that follow come from patent US12610947B2, “Tobacco axillary bud growth inhibitors and methods of inhibiting growth of tobacco axillary buds” (Drexel Chemical Company, priority 2020, dated 2026).

For one data set, the system named is TH241 tobacco. The experiment in a line: Example 3 plot study: phytotoxicity on a scale of 0 to 5. To be noted: for Phytotoxicity: scale of 0 to 5. It counts as in vivo. The procedure:
(§1) A third study was conducted comparing the effects of various treatment compositions on TH241 tobacco. The study was designed in random blocks. Each test plot was formed by two rows of ten tobacco plants. Each treatment was applied to three separate plots. […] The first application was performed when the first axillary shoots were observed. Additional applications were performed when new axillary shoots were observed. Shoots longer than 3 cm were manually removed at the time of each application. The applications were performed using a manual backpack sprayer, spraying at a low pressure above the plant toward the stalk so that the composition ran down the stalk, contacting the leaf axils. Approximately 13 to 26 milliliters of composition were applied to each plant. The phytotoxicity of the treatment compositions was assessed and recorded on a scale of 0 to 5 based on visible symptoms. The number and size of the axil shoots was recorded every 7 to 14 days following the initial treatment application. Axillary shoots were assigned a level according to their length. Shoots less than 3 cm in length were assigned to level 1. Shoots between 3 and 15 cm were assigned to level 2. Shoots between 15 and 30 cm were assigned to level 3. Shoots between 30 and 45 cm were assigned to level 4. Shoots between 45 and 60 cm were assigned to level 5. And shoots greater than 60 cm were assigned to level 6. An estimated average length of shoots in each plot could then be calculated according to the number of shoots assigned to each level.
Phytotoxicity was assessed 9 days and 26 days after the first application of each treatment. […] Only mild symptoms of phytotoxicity were observed on the remaining plants. […] The phytotoxicity was likely more apparent due to the fact that by day 26, two pelargonic acid treatments had already been performed. […] No further evaluations were carried out.

In data set [1] the test system is axillary shoots of TH241 tobacco. The experiment in a line: Example 3 plot study: axillary shoot length and effectiveness vs non-treated control. The format is in vivo. To be noted: for Axillary Shoot Length Results: level assigned by shoot length; for Axillary Shoot Length Results / Effectiveness Results: dosage and applications per Table 8; for Effectiveness Results: compared to the non-treated control group; for Effectiveness: compared to non-treated control. The procedure: as §1, with “level. […] For this reason, treatments 1, 3, 4, and 5 were applied three times; treatments 2, 6, and 7 were applied twice; and treatments 8 and 9 were applied only once. The effectiveness of each treatment method was calculated as compared to the non-treated control group.” for “level.”

In data set [2] the test system is axillary shoots of tobacco. Description: Example 4 (Farm A and Farm B): axillary shoot length, effectiveness vs non-treated control, effective period. To be noted: Farm A, before second application. The format is in vivo. The procedure: (§2) A fourth study was conducted simultaneously by two separate farms (designated Farm A and Farm B) to further assess the effectiveness of the various treatments including under varying conditions.
The overall study was designed in random blocks. The treatments utilized were Biosucker, Bioantak (37 DOT), Antak-68.5, Beloukha, Sharpen 33%, and a control treatment that was untreated. On each farm, each test plot was formed by a single line of 20 plants. Each treatment was applied to three separate plots on each farm. […] The first application was applied when the first axillary shoots were observed. Additional applications were applied when the new axillary shoots were observed. Shoots longer than 3 cm were manually removed at the time of each application. […] The phytotoxicity of the treatment compositions was assessed and recorded on a scale of 0 to 5 based on visible symptoms. The number and size of the axil shoots was recorded every 6 to 8 days following the initial treatment application. […] An estimated average length of shoots in each plot could then be calculated according to the number of shoots assigned to each level.
The results of the length of axillary shoots measured at Farm A and Farm B are shown in Table 15 and Table 16, respectively. […]
The effectiveness of each treatment method and each farm was calculated as compared to the non-treated control group.

The next data set has as its system tobacco. Description: Example 4 (Farm A and Farm B): phytotoxicity on a scale of 0 to 5. To be noted: in vivo. The procedure:
as §2
The overall study was designed in random blocks. The treatments utilized were Biosucker, Bioantak (37 DOT), Antak-68.5, Beloukha, Sharpen 33%, and a control treatment that was untreated. On each farm, each test plot was formed by a single line of 20 plants. Each treatment was applied to three separate plots on each farm. […] The first application was applied when the first axillary shoots were observed. Additional applications were applied when the new axillary shoots were observed. Shoots longer than 3 cm were manually removed at the time of each application. The applications were performed using a manual backpack sprayer, spraying at a low pressure above the plant toward the stalk so that the composition ran down the stalk, contacting the leaf axils. Approximately 20 milliliters of composition were applied to each plant. The phytotoxicity of the treatment compositions was assessed and recorded on a scale of 0 to 5 based on visible symptoms. The number and size of the axil shoots was recorded every 6 to 8 days following the initial treatment application. […] An estimated average length of shoots in each plot could then be calculated according to the number of shoots assigned to each level. […]

Take `CCCCCCCCC(=O)O` [Pelargonic acid, pelargonic acid]: the Phytotoxicity turned out to be 2.0 B with TH241 tobacco (August 12, D + 26 days) and 1.6 C in the data set with TH241 tobacco (July 26, D + 9 days). Besides, the symptoms of phytotoxicity entry in the data set on TH241 tobacco (August 21, after a third application) was “symptoms of phytotoxicity were still more pronounced”. Also, the “Axillary Shoot Length Results” value in data set [1] (5-Aug, D + 19 days) came out at 1.3 Cd; in data set [1] (12-Aug, D + 26 days), 2.6 C; in data set [1] (21-Aug, D + 35 days), 1.2 Abc; in data set [1] (26-Jul, D + 9 days), 1.2 C; in data set [1] (29-Aug, D + 43 days) it was 2.3 bcde; in data set [1] (Oct. 10, D + 85 days), 5.5 B. Further, the “Axillary Shoot Length Results” value was 3.9 C in data set [1] (Sept. 11, D + 56 days); 5.1 C in data set [1] (Sept. 24, D + 69 days); 5.4 B in data set [1] (Sept. 30, D + 75 days). Also, the “Effectiveness Results” value in data set [1] (Aug 5, D + 19 days) is 61%; in data set [1] (Aug 12, D + 26 days), 37%; in data set [1] (Aug 21, D + 35 days) it was 80%; in data set [1] (Aug 29, D + 43 days) it was 61%; in data set [1] (July 26, D + 9 days), 39%; in data set [1] (Sept. 11, D + 56 days) it was 35%. Also, the “Effectiveness Results” value in data set [1] (Sept. 24, D + 69 days) was determined as 16%. The Effectiveness was found to be 8% in data set [1] (Oct. 10, D + 85 days) and 9% in data set [1] (Sept. 30, D + 75 days). In data set [1] (after only 9 days), the shoot length is reported as roughly 3 cm. In addition, in data set [2], the “day until which shoot length was the same as the standard treatment” value stood at 27 days. In the data set with tobacco, the phytotoxicity symptoms result is “highest levels of burns and deformation”.
